The text below walks through data of ChEMBL document CHEMBL1201862, “PubChem BioAssay data set” (2004).

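Cells were grown in 96-well plates and exposed to each compound for 48 hours at five concentrations; endpoints were interpolated linearly between bracketing concentrations, or set to the highest concentration if not reached. GI50 is the concentration that inhibits growth by half.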 Activity calls are given as the source filed them. No stated cut-off is given here; in the data, active = GI50 up to about 1.1 µM and inactive = higher.

Holding throughout (assay): NCI tumour cell line growth inhibition, 48 h
Test [1] has as its system A498.
For test [2], the system named is ACHN.
In test [3] the test system is HL-60.
The test system of test [4] is HT-29.
For test [5], the system named is M14.
Test [6] concerns MCF7.
Test [7] relates to NCI-H460.
Test [8] relates to NCI/ADR-RES.
Test [9] concerns OVCAR-5.
For test [10], the system named is OVCAR-8.
The test system of test [11] is SF-268.
Test [12] relates to SF-295.
Test [13] concerns SK-MEL-28.
Test [14] deals with SK-MEL-5.
Test [15] relates to SK-OV-3.
The test system of test [16] is SN12C.
The test system of test [17] is SR.
In test [18] the test system is UACC-62.
Test [19] deals with CAKI-1.
Test [20] relates to KM12.

In the case of `C=CC1CCC[N+]1(CC(=O)OCC)Cc1ccccc1` (centres undefined), the GI50 in test [1], in test [2], in test [3], in [4], in test [5] and in [6] was > 100 µM (inactive) throughout. For the same compound, the GI50 in [7], in test [8], in test [9], in test [10], in [11] and in test [12] was > 100 µM (inactive) throughout. Further, the GI50 in [13], in test [14], in test [15], in test [16], in [17] and in test [18] was > 100 µM (inactive) throughout.

`COc1cc(Cc2nccc3cc(OC)c(OC)cc23)c(C(C)=O)cc1OC`: the GI50 in test [1] was > 300 µM (inactive); in [2] it was 153 µM (inactive); in [19], > 300 µM (inactive); in test [3], 59.7 µM (inactive); in test [4], 199 µM (inactive); in test [20], 160 µM (inactive). Further, the GI50 was 187 µM (inactive) in test [5]; 144 µM (inactive) in test [6]; > 300 µM (inactive) in test [8]; > 300 µM (inactive) in test [9]; 1.56 µM (inactive) in test [11]; > 300 µM (inactive) in test [12]. Also, the GI50 in [14] is 57.4 µM (inactive); in [15], 128 µM (inactive); in [16], 1.76 µM (inactive); in test [17], > 750 µM (inactive); in test [18] it was 53 µM (inactive).

As to `CC(=O)OCC1OC(OCCCOP(=S)(OCCC#N)OCC2OC(n3ccc(N)nc3=O)C(OC(=O)c3ccccc3)C2OC(=O)c2ccccc2)C(OC(C)=O)C(OC(C)=O)C1OC(C)=O` (centres undefined), the GI50 in test [1], in [2], in test [19], in [4], in test [20] and in [5] was > 100 µM (inactive) in each case. Also, the GI50 in test [6] is 46.6 µM (inactive); in [7] it was > 100 µM (inactive); in [8] it was > 100 µM (inactive); in test [9], > 100 µM (inactive); in [10] it was > 100 µM (inactive); in [11], > 100 µM (inactive). Further, the GI50 in test [12], in [13], in test [14], in test [15], in test [16] and in test [17] was > 100 µM (inactive) in each case. Further, in test [18], the GI50 was > 100 µM (inactive).

Turning to `c1ccc(B2OCC(C3OB(c4ccccc4)OC4COB(c5ccccc5)OC43)O2)cc1` (centres undefined), the GI50 in test [1], in test [2], in [19], in test [4], in test [20] and in test [5] was > 100 µM (inactive) each time. Also, the GI50 in test [6], in [7], in [8], in [9], in test [10] and in [11] was > 100 µM (inactive) each time. Besides, the GI50 in test [12], in test [13], in [14], in test [15], in test [16] and in test [17] was > 100 µM (inactive) in each case. Moreover, the GI50 in test [18] is > 100 µM (inactive).

Regarding `CCOC(=O)NC(OC)(C(F)(F)F)C(F)(F)F`, the GI50 in [1], in test [2], in [19], in [3], in [4] and in [5] was > 100 µM (inactive) in each case. Besides, the GI50 in test [6], in test [7], in test [8], in [10], in [11] and in [12] was > 100 µM (inactive) each time. The GI50 in test [13] was > 100 µM (inactive); in test [14], > 100 µM (inactive); in test [15], 46.9 µM (inactive); in [17] it was > 100 µM (inactive); in [18] it was > 100 µM (inactive).

In the case of `Clc1sc(Cl)c2c1[C@@H](Cl)C[C@@H]2Cl`, the GI50 was > 100 µM (inactive) in [1]; > 100 µM (inactive) in test [2]; 94.6 µM (inactive) in [19]; > 100 µM (inactive) in test [4]; > 100 µM (inactive) in test [20]; > 100 µM (inactive) in test [5]. The GI50 was 52.4 µM (inactive) in [6]; 92.9 µM (inactive) in [7]; > 100 µM (inactive) in test [8]; > 100 µM (inactive) in test [9]; > 100 µM (inactive) in test [10]; 62.1 µM (inactive) in test [11]. In addition, the GI50 in test [12] was > 100 µM (inactive); in test [13], 84.9 µM (inactive); in test [14] it was > 100 µM (inactive); in [15] it was > 100 µM (inactive); in test [16] it was > 100 µM (inactive); in test [17], 33.6 µM (inactive). Besides, in test [18], the GI50 is 13.4 µM (inactive).

For `CCC1(O)C(=O)OCc2c1cc1n(c2=O)Cc2cc3cc4c(cc3nc2-1)OCO4` (centres undefined), the GI50 is < 0.0103 µM (active) in [1]; < 0.01 µM (active) in test [2]; < 0.01 µM (active) in test [19]; < 0.01 µM (active) in test [3]; 0.0113 µM (active) in [4]; < 0.01 µM (active) in test [5]. Further, the GI50 is < 0.01 µM (active) in test [6]; < 0.01 µM (active) in test [7]; < 0.01 µM (active) in [8]; 0.0327 µM (active) in [9]; < 0.01 µM (active) in test [10]; < 0.0363 µM (active) in test [11]. Also, the GI50 in test [12] was < 0.01 µM (active); in test [13], 0.112 µM (active); in test [14], < 0.01 µM (active); in test [15], 0.0102 µM (active); in [16], < 0.01 µM (active); in test [17] it was < 0.215 µM (active). Besides, the GI50 in [18] is < 0.01 µM (active).

As to `C/C(=C\c1ccc2c(c1)OCO2)[N+](=O)[O-]`, the GI50 was 7.23 µM (inactive) in test [1]; 2.01 µM (inactive) in test [2]; 2.28 µM (inactive) in test [19]; 1.46 µM (inactive) in [3]; 2.98 µM (inactive) in test [4]; 1.54 µM (inactive) in [20]. The GI50 in test [5] is 3.65 µM (inactive); in [6] it was 0.205 µM (active); in test [7], 3.26 µM (inactive); in test [8], 6.04 µM (inactive); in test [9] it was 3.96 µM (inactive); in [10], 2.77 µM (inactive). The GI50 in [11] was 3.44 µM (inactive); in test [12] it was 2.85 µM (inactive); in [13], 2.74 µM (inactive); in [14] it was 1.91 µM (inactive); in test [16], 3.38 µM (inactive); in [17], 0.323 µM (active). In addition, the GI50 in test [18] was 2.01 µM (inactive).

Take `CO/C(=N\N=C\c1ccc(OC)c(OC)c1)c1ccncc1`: the GI50 in [1], in test [19], in [3], in [20], in test [5] and in test [6] was > 10 µM (inactive) in each case. The GI50 in test [7], in test [8], in test [10], in test [11], in [14] and in [15] was > 10 µM (inactive) throughout. Further, the GI50 in test [16], in test [17] and in test [18] was > 10 µM (inactive) throughout.

Take `O=C(/C=C/c1ccc(O)c(O)c1)OCCCOC(=O)/C=C/c1ccc(O)c(O)c1`: the GI50 in test [1] is 52.5 µM (inactive); in test [2], 16.2 µM (inactive); in test [19], 34.4 µM (inactive); in test [4], 22.3 µM (inactive); in [20], 33.3 µM (inactive); in test [5], 19.2 µM (inactive). Also, the GI50 is 30.6 µM (inactive) in [6]; 21.8 µM (inactive) in [7]; 28.4 µM (inactive) in [8]; 27.4 µM (inactive) in test [9]; 22.8 µM (inactive) in [10]; 23.9 µM (inactive) in test [11]. Besides, the GI50 in test [12] was 18 µM (inactive); in [13] it was 36.6 µM (inactive); in [14] it was 15.9 µM (inactive); in [15] it was 27.2 µM (inactive); in test [16] it was 28.1 µM (inactive); in test [17], 17.2 µM (inactive). In addition, the GI50 in test [18] was 16.6 µM (inactive).

With `COC1(CC[C@H](C)COC2OC(CO)C(O)C(O)C2O)O[C@H]2C[C@H]3[C@@H]4CC=C5C[C@@H](OC6OC(CO)C(OC7OC(C)C(O)C(O)C7O)C(O)C6OC6OC(C)C(O)C(O)C6O)CC[C@]5(C)[C@H]4CC[C@]3(C)[C@H]2[C@@H]1C` (some centres undefined), the GI50 in test [1] was 23.5 µM (inactive); in [2], 12 µM (inactive); in test [19] it was 1.48 µM (inactive); in [3], 8.55 µM (inactive); in [4], 2.52 µM (inactive); in test [20], 2.47 µM (inactive). The GI50 is 3.12 µM (inactive) in test [5]; 8.45 µM (inactive) in test [6]; 3.67 µM (inactive) in test [8]; 4.2 µM (inactive) in [9]; 3.37 µM (inactive) in test [10]; 3.24 µM (inactive) in [11]. Moreover, the GI50 is 4.29 µM (inactive) in test [12]; 3.77 µM (inactive) in test [13]; 4.98 µM (inactive) in test [14]; 2.82 µM (inactive) in test [15]; 7.76 µM (inactive) in [16]; > 100 µM (inactive) in [17].
